In brackets after ≈: the same amount, converted by molar mass. Some results are limits rather than exact numbers.

Consider 34 compounds from ChEMBL document CHEMBL3272040, “3-Cyanocephems, and carbon-3 heterocyclic-substituted cephems via 1,3-dipolar cycloadditions” (1976).

In test [1] the test system is Streptococcus pyogenes. Briefly: Antimicrobial activity against Streptococcus pyogenes MB-3124. In kind it is functional.
Test [2] deals with Staphylococcus aureus. Nature of the test: Antimicrobial activity against Staphylococcus aureus MB-2865. It is filed as functional.

The term MIC denotes the lowest concentration found to suppress growth. A lower MIC goes with greater potency. As to `O=CC1=C(C(=O)OC(c2ccccc2)c2ccccc2)N2C(=O)[C@@H](NC(=O)Cc3cccs3)[C@H]2SC1`, in test [1], the MIC was < 0.39 µg/mL. On the same count and under the same terms, to `O=C(Cc1cccs1)N[C@@H]1C(=O)N2C(C(=O)OC(c3ccccc3)c3ccccc3)=C(/C=N/O)CS[C@H]12` belongs < 0.39 µg/mL. `O=C(Cc1cccs1)N[C@@H]1C(=O)N2C(C(=O)O)=C(/C=N/O)CS[C@H]12`: the MIC in test [1] and in test [2] was < 0.39 µg/mL in each case. For the compound `COC(=O)C1=C(/C=N/O)CS[C@@H]2[C@H](NC(=O)Cc3cccs3)C(=O)N12`, the MIC in test [1] is < 0.39 µg/mL. As to `O=C(O)CO/N=C/C1=C(C(=O)OC(c2ccccc2)c2ccccc2)N2C(=O)[C@@H](NC(=O)Cc3cccs3)[C@H]2SC1`, in test [1], the MIC is < 0.39 µg/mL. In the case of `COC(=O)CO/N=C/C1=C(C(=O)OC(c2ccccc2)c2ccccc2)N2C(=O)[C@@H](NC(=O)Cc3cccs3)[C@H]2SC1`, the minimal inhibitory concentration (MIC) in test [1] is < 0.39 µg/mL. As to `COC(=O)CO/N=C/C1=C(C(=O)O)N2C(=O)[C@@H](NC(=O)Cc3cccs3)[C@H]2SC1`, the MIC in test [1] is < 0.39 µg/mL; in test [2], 12.5 µg/mL (≈ 28.4 µM). For the compound `COC(=O)CO/N=C/C1=C(C(=O)OC)N2C(=O)[C@@H](NC(=O)Cc3cccs3)[C@H]2SC1`, in test [1], the MIC was < 0.39 µg/mL. Consider `CO/N=C/C1=C(C(=O)OC(c2ccccc2)c2ccccc2)N2C(=O)[C@@H](NC(=O)Cc3cccs3)[C@H]2SC1`, for which the MIC in test [1] is < 0.39 µg/mL. `O=C(Cc1cccs1)N[C@@H]1C(=O)N2C(C(=O)OC(c3ccccc3)c3ccccc3)=C(/C=N/OCc3ccccc3)CS[C@H]12`: in test [1], the MIC was < 0.39 µg/mL. For `N#CC1=C(C(=O)OC(c2ccccc2)c2ccccc2)N2C(=O)[C@@H](NC(=O)Cc3cccs3)[C@H]2SC1`, in test [1], the MIC is < 0.39 µg/mL. On to `N#CC1=C(C(=O)O)N2C(=O)[C@@H](NC(=O)Cc3cccs3)[C@H]2SC1`, for which the MIC in test [1] was < 0.39 µg/mL; in test [2], 0.78 µg/mL (≈ 2.23 µM). Turning to `Cc1ccc(S(=O)(=O)N/N=C/C2=C(C(=O)OC(c3ccccc3)c3ccccc3)N3C(=O)[C@@H](NC(=O)Cc4cccs4)[C@H]3SC2)cc1`, the MIC in test [1] is < 0.39 µg/mL. Consider `Cc1ccc(S(=O)(=O)N(C)/N=C/C2=C(C(=O)OC(c3ccccc3)c3ccccc3)N3C(=O)[C@@H](NC(=O)Cc4cccs4)[C@H]3SC2)cc1`, for which the MIC in test [1] was < 0.39 µg/mL. As for `Cc1ccc(S(=O)(=O)N(C)/N=C/C2=C(C(=O)O)N3C(=O)[C@@H](NC(=O)Cc4cccs4)[C@H]3SC2)cc1`, the MIC in test [1] and in test [2] was < 0.39 µg/mL in each case.

As for `COC(=O)C1=C(/C=N/N(C)S(=O)(=O)c2ccc(C)cc2)CS[C@@H]2[C@H](NC(=O)Cc3cccs3)C(=O)N12`, in test [1], the MIC was < 0.39 µg/mL. Consider `O=C(Cc1cccs1)N[C@@H]1C(=O)N2C(C(=O)OC(c3ccccc3)c3ccccc3)=C(/C=N/Nc3ccc([N+](=O)[O-])cc3)CS[C@H]12`, for which, in test [1], the MIC was < 0.39 µg/mL. In the case of `O=C(Cc1cccs1)N[C@@H]1C(=O)N2C(C(=O)OC(c3ccccc3)c3ccccc3)=C(/C=N/NC(=O)c3ccccc3)CS[C@H]12`, the MIC in test [1] is < 0.39 µg/mL. Take `CC(=O)N/N=C/C1=C(C(=O)OC(c2ccccc2)c2ccccc2)N2C(=O)[C@@H](NC(=O)Cc3cccs3)[C@H]2SC1`: the MIC in test [1] was < 0.39 µg/mL. For the compound `CCOC(=O)N/N=C/C1=C(C(=O)OC(c2ccccc2)c2ccccc2)N2C(=O)[C@@H](NC(=O)Cc3cccs3)[C@H]2SC1`, in test [1], the MIC is < 0.39 µg/mL. In the case of `Cc1ccc(S(=O)(=O)[N-]/N=C/C2=C(C(=O)OC(c3ccccc3)c3ccccc3)N3C(=O)[C@@H](NC(=O)Cc4cccs4)[C@H]3SC2)cc1.[Li+]`, the MIC in test [1] is < 0.39 µg/mL. With `[N-]=[N+]=CC1=C(C(=O)OC(c2ccccc2)c2ccccc2)N2C(=O)[C@@H](NC(=O)Cc3cccs3)[C@H]2SC1`, in test [1], the MIC was < 0.39 µg/mL. For `COC(=O)c1cc(C2=C(C(=O)OC(c3ccccc3)c3ccccc3)N3C(=O)[C@@H](NC(=O)Cc4cccs4)[C@H]3SC2)n[nH]1`, the MIC in test [1] is < 0.39 µg/mL.

Regarding `COC(=O)c1cc(C2=C(C(=O)O)N3C(=O)[C@@H](NC(=O)Cc4cccs4)[C@H]3SC2)n[nH]1`, the MIC was < 0.39 µg/mL in test [1] and 3.12 µg/mL (≈ 6.96 µM) in test [2]. Turning to `COC(=O)C1=C(c2cc(C(=O)OC)n(C)n2)CS[C@@H]2[C@H](NC(=O)Cc3cccs3)C(=O)N12`, the MIC in test [1] is < 0.39 µg/mL. With `COC(=O)c1cc(C2=C(C(=O)OC(c3ccccc3)c3ccccc3)N3C(=O)[C@@H](NC(=O)Cc4cccs4)[C@H]3SC2)nn1C`, the MIC in test [1] was < 0.39 µg/mL. Turning to `COC(=O)c1cc(C2=C(C(=O)O)N3C(=O)[C@@H](NC(=O)Cc4cccs4)[C@H]3SC2)nn1C`, the MIC was < 0.39 µg/mL in test [1] and 0.78 µg/mL (≈ 1.69 µM) in test [2]. As for `CCOC(=O)C1CC(C2=C(C(=O)OC(c3ccccc3)c3ccccc3)N3C(=O)[C@@H](NC(=O)Cc4cccs4)[C@H]3SC2)=NN1` (stereo partly specified), in test [1], the MIC is < 0.39 µg/mL.

In the case of `COC(=O)c1[nH]nc(C2=C(C(=O)OC(c3ccccc3)c3ccccc3)N3C(=O)[C@@H](NC(=O)Cc4cccs4)[C@H]3SC2)c1C(=O)OC`, the MIC in test [1] was < 0.39 µg/mL.

As for `O=C(Cc1cccs1)N[C@@H]1C(=O)N2C(C(=O)OC(c3ccccc3)c3ccccc3)=C(c3nn[nH]c3C(F)(F)F)CS[C@H]12`, the MIC in test [1] was < 0.39 µg/mL. Still for that read-out and setting: to `O=C(Cc1cccs1)N[C@@H]1C(=O)N2C(C(=O)OC(c3ccccc3)c3ccccc3)=C(C#[N+][O-])CS[C@H]12` belongs < 0.39 µg/mL.

Regarding `O=C(Cc1cccs1)N[C@@H]1C(=O)N2C(C(=O)OC(c3ccccc3)c3ccccc3)=C(c3cc(-c4ccccc4)on3)CS[C@H]12`, the MIC in test [1] is < 0.39 µg/mL. On to `O=C(Cc1cccs1)N[C@@H]1C(=O)N2C(C(=O)O)=C(c3cc(-c4ccccc4)on3)CS[C@H]12`, for which the MIC in test [1] and in test [2] was < 0.39 µg/mL throughout. For the compound `COC(=O)C1=C(c2cc(-c3ccccc3)on2)CS[C@@H]2[C@H](NC(=O)Cc3cccs3)C(=O)N12`, in test [1], the MIC is < 0.39 µg/mL.
